Assays:
human capsaicin receptor = molecular target: T1, human capsaicin receptor (Homo sapiens, UniProt Q8NER1); experiment: Calcium mobilization assay, determination of antagonist activity (Example 6); format: cell-based; details: cells expressing human capsaicin receptor, capsaicin-induced fluorescence response; read-out: IC50
T1 construct: pBK-CMV expression construct encoding the full length human capsaicin receptor; expressed in transfected cells
Experimental: A cDNA encoding full length human capsaicin receptor (SEQ ID NO:1, 2 or 3 of U.S. Pat. No. 6,482,611) is subcloned in the plasmid pBK-CMV (Stratagene, La Jolla, Calif.) for recombinant expression in mammalian cells.
Human embryonic kidney (HEK293) cells are transfected with the pBK-CMV expression construct encoding the full length human capsaicin receptor using standard methods. The transfected cells are selected for two weeks in media containing G418 (400 μg/ml) to obtain a pool of stably transfected cells. Independent clones are isolated from this pool by limiting dilution to obtain clonal stable cell lines for use in subsequent experiments.
Cells transfected with expression plasmids (as described in Example 4) and thereby expressing human capsaicin receptor are seeded and grown to 70-90% confluency in FALCON black-walled, clear-bottomed 96-well plates (#3904, BECTON-DICKINSON, Franklin Lakes, N.J.). The culture medium is emptied from the 96 well plates and FLUO-3 AM calcium sensitive dye (Molecular Probes, Eugene, Oreg.) is added to each well (dye solution: 1 mg FLUO-3 AM, 440 μl DMSO and 440 μl 20% pluronic acid in DMSO diluted 1:250 in Krebs-Ringer HEPES (KRH) buffer (25 mM HEPES, 5 mM KCl, 0.96 mM NaH2PO4, 1 mM MgSO4, 2 mM CaCl2, 5 mM glucose, 1 mM probenecid, pH 7.4), 50 μl diluted solution per well). Plates are covered with aluminum foil and incubated at 37° C. for 1-2 hours in an environment containing 5% CO2. After the incubation, the dye is emptied from the plates, and the cells are washed once with KRH buffer, and resuspended in KRH buffer.
To measure the ability of a test compound to agonize or antagonize a calcium mobilization response in cells expressing capsaicin receptors to capsaicin or other vanilloid agonist, the EC50 of the agonist capsaicin is first determined. An additional 20 μl of KRH buffer and 1 μl DMSO is added to each well of cells, prepared as described above. 100 μl capsaicin in KRH buffer is automatically transferred by the FLIPR instrument to each well. Capsaicin-induced calcium mobilization is monitored using either FLUOROSKAN ASCENT (Labsystems; Franklin, Mass.) or FLIPR (fluorometric imaging plate reader system; Molecular Devices, Sunnyvale, Calif.) instruments. Data obtained between 30 and 60 seconds after agonist application are used to generate an 8-point concentration response curve, with final capsaicin concentrations of 1 nM to 3 μM. KALEIDAGRAPH software (Synergy Software, Reading, Pa.) is used to fit the data to the equation: y=a*(1/(1+(b/x)^c)) to determine the 50% excitatory concentration (EC50) for the response. In this equation, y is the maximum fluorescence signal, x is the concentration of the agonist or antagonist (in this case, capsaicin), a is the Emax, b corresponds to the EC50 value and c is the Hill coefficient. Determination of Agonist Activity
Test compounds are dissolved in DMSO, diluted in 20 μl KRH buffer so that the final concentration of test compounds in the assay well is between 1 μM and 5 μM, and added to cells prepared as described above. The 96 well plates containing prepared cells and test compounds are incubated in the dark, at room temperature for 0.5 to 6 hours. It is important that the incubation not continue beyond 6 hours. Just prior to determining the fluorescence response, 100 μl capsaicin in KRH buffer at twice the EC50 concentration determined as described above is automatically added by the FLIPR instrument to each well of the 96 well plate for a final sample volume of 200 μl and a final capsaicin concentration equal to the EC50. The final concentration of test compounds in the assay wells is between 1 μM and 5 μM. […] The concentration of antagonist required to provide a 50% decrease, relative to the response observed in the presence of capsaicin and without antagonist, is the IC50 for the antagonist, and is preferably below 1 micromolar, 100 nanomolar, 10 nanomolar or 1 nanomolar.

VR = VR (Homo sapiens, UniProt Q8NER1); details: typical value, background section; cited from earlier work
Sequence of VR (Q8NER1 whole entry): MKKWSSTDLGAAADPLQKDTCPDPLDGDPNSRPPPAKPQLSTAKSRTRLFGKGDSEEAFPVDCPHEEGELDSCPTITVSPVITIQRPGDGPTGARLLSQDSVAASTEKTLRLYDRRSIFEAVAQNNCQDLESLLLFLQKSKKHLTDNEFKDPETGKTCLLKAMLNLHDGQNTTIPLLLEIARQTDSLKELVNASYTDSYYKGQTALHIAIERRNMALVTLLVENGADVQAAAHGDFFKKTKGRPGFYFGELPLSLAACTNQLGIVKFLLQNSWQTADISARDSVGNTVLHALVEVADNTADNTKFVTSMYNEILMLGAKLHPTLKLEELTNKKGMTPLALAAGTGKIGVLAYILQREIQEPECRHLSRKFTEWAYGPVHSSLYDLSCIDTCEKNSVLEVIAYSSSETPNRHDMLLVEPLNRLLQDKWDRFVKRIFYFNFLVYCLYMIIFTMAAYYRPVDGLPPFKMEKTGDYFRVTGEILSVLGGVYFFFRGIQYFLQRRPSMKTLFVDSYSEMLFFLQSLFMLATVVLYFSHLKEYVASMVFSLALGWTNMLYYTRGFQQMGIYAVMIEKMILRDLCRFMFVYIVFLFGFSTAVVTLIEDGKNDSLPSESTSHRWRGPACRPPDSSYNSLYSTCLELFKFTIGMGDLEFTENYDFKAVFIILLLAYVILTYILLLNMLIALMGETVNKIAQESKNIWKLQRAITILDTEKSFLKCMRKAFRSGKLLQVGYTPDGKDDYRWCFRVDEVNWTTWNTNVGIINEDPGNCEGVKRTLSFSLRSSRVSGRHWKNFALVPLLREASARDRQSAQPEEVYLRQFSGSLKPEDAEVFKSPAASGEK

T1 sequence (Q8NER1 whole entry): as above

For `CCn1cnc2c(=O)n(-c3ccc(C#N)cc3)c(CCC(C)C(F)(F)F)nc21` (centres unmarked) [Compound 34, 4-[9-ethyl-6-oxo-2-(4,4,4-trifluoro-3-methylbutyl)-6,9-dihydro-1H-purin-1-yl]benzonitrile], the IC50 (human capsaicin receptor) was at most 100 nM.
With `CC(Cc1nc2cccnc2c(=O)n1-c1ccc(Cl)cc1)CC(F)(F)F` (centres unmarked) [Compound 35, 3-(4-chlorophenyl)-2-(4,4,4-trifluoro-2-methylbutyl)pyrido[3,2-d]pyrimidin-4(3H)-one] the IC50 (human capsaicin receptor) was at most 100 nM.
`CCn1cnc2c(=O)n(-c3ccc(C#N)cc3)c(CC(C)C(F)(F)F)nc21` (centres unmarked) [Compound 36, 4-[9-ethyl-6-oxo-2-(3,3,3-trifluoro-2-methylpropyl)-6,9-dihydro-1H-purin-1-yl]benzonitrile] showed an IC50 (human capsaicin receptor) of at most 100 nM.
For `CC(Cc1nc2c(ncn2C)c(=O)n1-c1ccc(C#N)cc1)C(F)(F)F` (centres unmarked) [Compound 37, 4-[9-methyl-6-oxo-2-(3,3,3-trifluoro-2-methylpropyl)-6,9-dihydro-1H-purin-1-yl]benzonitrile], the IC50 (human capsaicin receptor) was at most 100 nM.
For `Cl.Cl.Cl.Cl.Cl.Cl.N.N.N.N.N.N.N.N.N.N.N.N.N.N.[O-2].[O-2].[Ru+3].[Ru+3].[Ru+4]` [ruthenium red], the Ki (VR) is listed as at least 140000 nM.
